Laboratory results published in patent publication US12371454B2, “Cyclic peptide compound having Kras inhibitory action” (priority 2019, dated 2025).
Positions of bridges follow the written chain, without caps; N, C: chain ends. Non-standard residues stand in square brackets, D forms with d. Residues, ends and D or L forms follow the SMILES beside them. *: point of attachment. hPhe(3-Cl-4-CF3) = N[C@@H](CCc1ccc(C(F)(F)F)c(Cl)c1)C(=O)O; hPhe(3-F,4-CF3) = N[C@@H](CCc1ccc(C(F)(F)F)c(F)c1)C(=O)O; 3Oxa8azabicyclo(3.2.1)octane = C1CC2COCC1N2*; NMeAbu(4,4,4-F3) = CN[C@@H](CC(F)(F)F)C(=O)O; NMePhe(3-Me) = CN[C@@H](Cc1cccc(C)c1)C(=O)O; NMeAla(cPent) = CN[C@@H](CC1CCCC1)C(=O)O; NMeGly(cPent) = CN[C@H](C(=O)O)C1CCCC1; NMe4Pal = CN[C@@H](Cc1ccncc1)C(=O)O; NMeGly(cBu) = CN[C@H](C(=O)O)C1CCC1; NMeCha = CN[C@@H](CC1CCCCC1)C(=O)O; NMeChg = CN[C@H](C(=O)O)C1CCCCC1; NMeD = CN[C@@H](CC(=O)O)C(=O)O; NMeL = CN[C@@H](CC(C)C)C(=O)O; NMeNva = CCC[C@H](NC)C(=O)O; NMeV = CN[C@H](C(=O)O)C(C)C; Trifluoroethyl = FC(F)(F)C*; d(β3hA) = C[C@@H](N)CC(=O)O; NMeS = CN[C@@H](CO)C(=O)O; Morpholide = C1CN(*)CCO1; NMeA = CN[C@@H](C)C(=O)O; Piperidide = C1CCN(*)CC1; Ac5c = NC1(C(=O)O)CCCC1; Aze = O=C(O)[C@@H]1CCN1; Ac4c = NC1(C(=O)O)CCC1; Sar = CNCC(=O)O; Propyl = CCC*

Columns and labels:
[1] = biological target: T1, Kras and SOS1 (biotin-tagged human Kras loaded with GDP, His-tagged human SOS1) (Homo sapiens, UniProt P01116, G12D); test: Protein-protein interaction inhibition between Kras and SOS1 (KrasGl2D-SOS PPI) using AlphaScreen; assay type: binding; conditions: AlphaScreen; biotin-tagged human Kras loaded with GDP, His-tagged human SOS1; read-out: KRAS G12D-SOS PPI IC50
T1 construct: made in house; host or cells: E. coli (stated for Kras only)
T1 sequence (P01116 1-188 isoform P01116-2 G12D): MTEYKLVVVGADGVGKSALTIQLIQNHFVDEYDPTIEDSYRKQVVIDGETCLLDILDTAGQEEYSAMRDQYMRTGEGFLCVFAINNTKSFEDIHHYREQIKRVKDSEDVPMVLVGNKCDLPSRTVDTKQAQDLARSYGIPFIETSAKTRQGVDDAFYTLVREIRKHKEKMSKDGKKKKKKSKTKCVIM
Outline: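 Kras was produced in E. coli, purified, then loaded with GDP. It was paired via streptavidin acceptor beads with His-SOS1 held on nickel donor beads, and proximity signal at 520-620 nm was read after 680 nm illumination.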

[2] = system: Human pancreatic cancer cell line AsPC-1; test: Measurement of AsPC-1 cell growth inhibition (AsPC-1 CGI); assay type: cell-based; conditions: 96 h
Outline: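 AsPC-1 cells in 15% FBS RPMI-1640 were exposed to test compound for 96 hours at 37° C, with CellTiter-Glo as endpoint.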

Structure (SMILES)	IC50 [1] [µM]	IC50 [2] [µM]
CCCOC[C@H]1C(=O)N(C)CC(=O)N[C@@H](CCc2ccc(C(F)(F)F)c(Cl)c2)C(=O)N2CCC[C@H]2C(=O)NC2(CCCC2)C(=O)N(C)[C@@H](C2CCCCC2)C(=O)N(C)[C@H](C(=O)N2CCOCC2)CC(=O)N(C)[C@@H](CC(F)(F)F)C(=O)N[C@@H]([C@@H](C)CC)C(=O)N(C)CC(=O)N(C)CC(=O)N1C [Compound 445] ([NMeAbu(4,4,4-F3)]I[Sar][Sar][NMeS](Propyl)[Sar][hPhe(3-Cl-4-CF3)]P[Ac5c][NMeChg][NMeD]-Morpholide; lactam N-11)	0.00067	0.1 to 0.5
CC[C@H](C)[C@@H]1NC(=O)[C@H](CC(C)C)N(C)C(=O)C[C@@H](C(=O)N(C)C)N(C)C(=O)[C@H](C2CCCC2)N(C)C(=O)C2(CCCC2)NC(=O)[C@H](Cc2cccc(C)c2)N(C)C(=O)[C@H](CCc2ccc(C(F)(F)F)c(Cl)c2)NC(=O)CN(C)C(=O)[C@H](CC2CCCCC2)N(C)C(=O)[C@@H]2CCN2C(=O)[C@H](C)N(C)C1=O [Compound 449] ([NMeL]I[NMeA][Aze][NMeCha][Sar][hPhe(3-Cl-4-CF3)][NMePhe(3-Me)][Ac5c][NMeGly(cPent)][NMeD]-NMe2; lactam N-11)	0.03	0.1 to 0.5
CC[C@H](C)[C@@H]1NC(=O)[C@H](C2CCCCC2)N(C)C(=O)C[C@@H](C)NC(=O)[C@H](C(C)C)N(C)C(=O)C2(CCCC2)NC(=O)[C@@H]2CCCN2C(=O)[C@H](CCc2ccc(C(F)(F)F)c(Cl)c2)NC(=O)CN(C)C(=O)[C@H](CC2CCCCC2)N(C)C(=O)CN(C)C(=O)CN(C)C1=O [Compound 456] (cyclo([Ac5c][NMeV][d(β3hA)][NMeChg]I[Sar][Sar][NMeCha][Sar][hPhe(3-Cl-4-CF3)]P))	0.034	0.1 to 0.5
CC[C@H](C)[C@@H]1NC(=O)[C@H](C2CCC2)N(C)C(=O)C[C@@H](C(=O)N2C3CCC2COC3)N(C)C(=O)[C@H](C2CCCCC2)N(C)C(=O)C2(CCCC2)NC(=O)[C@@H]2CCCN2C(=O)[C@H](CCc2ccc(C(F)(F)F)c(Cl)c2)NC(=O)CN(C)C(=O)[C@H](CC2CCCC2)N(C)C(=O)CN(C)C(=O)CN(C)C1=O [Compound 461] ([NMeGly(cBu)]I[Sar][Sar][NMeAla(cPent)][Sar][hPhe(3-Cl-4-CF3)]P[Ac5c][NMeChg][NMeD]-{3Oxa8azabicyclo(3.2.1)octane}; lactam N-11)	0.0012	0.1 to 0.5
CCC[C@H]1C(=O)NC2(CCCC2)C(=O)N(C)[C@@H](C2CCCCC2)C(=O)N(C)[C@H](C(=O)N2CCCCC2)CC(=O)N(C)[C@@H](CC(C)C)C(=O)N[C@@H]([C@@H](C)CC)C(=O)N(C)CC(=O)N2CC[C@H]2C(=O)N(C)[C@@H](CC2CCCCC2)C(=O)N(C)CC(=O)N[C@@H](CCc2ccc(C(F)(F)F)c(Cl)c2)C(=O)N1C [Compound 478] ([NMeL]I[Sar][Aze][NMeCha][Sar][hPhe(3-Cl-4-CF3)][NMeNva][Ac5c][NMeChg][NMeD]-Piperidide; lactam N-11)	0.003	0.1 to 0.5
CC[C@H](C)[C@@H]1NC(=O)[C@H](CC(C)C)N(C)C(=O)C[C@@H](C(=O)N2CCCCC2)N(C)C(=O)[C@H](C2CCCCC2)N(C)C(=O)C2(CCCC2)NC(=O)[C@H](Cc2ccncc2)N(C)C(=O)[C@H](CCc2ccc(C(F)(F)F)c(Cl)c2)NC(=O)CN(C)C(=O)[C@H](CC2CCCCC2)N(C)C(=O)[C@@H]2CCN2C(=O)CN(C)C1=O [Compound 480] ([NMeL]I[Sar][Aze][NMeCha][Sar][hPhe(3-Cl-4-CF3)][NMe4Pal][Ac5c][NMeChg][NMeD]-Piperidide; lactam N-11)	0.0014	0.1 to 0.5
CC[C@H](C)[C@@H]1NC(=O)[C@H](C)N(C)C(=O)C[C@@H](C(=O)N2CCCCC2)N(C)C(=O)[C@H](C2CCCCC2)N(C)C(=O)C2(CCCC2)NC(=O)[C@@H]2CCCN2C(=O)[C@H](CCc2ccc(C(F)(F)F)c(F)c2)NC(=O)CN(C)C(=O)[C@H](CC2CCCCC2)N(C)C(=O)CN(C)C(=O)CN(C)C1=O [Compound 491] ([NMeA]I[Sar][Sar][NMeCha][Sar][hPhe(3-F,4-CF3)]P[Ac5c][NMeChg][NMeD]-Piperidide; lactam N-11)	0.00035	0.1 to 0.5
CC[C@H](C)[C@@H]1NC(=O)[C@H](COCC(F)(F)F)N(C)C(=O)C[C@@H](C(=O)N2CCCCC2)N(C)C(=O)[C@H](C2CCCCC2)N(C)C(=O)C2(CCCC2)NC(=O)[C@@H]2CCCN2C(=O)[C@H](CCc2ccc(C(F)(F)F)c(Cl)c2)NC(=O)CN(C)C(=O)[C@H](CC2CCCCC2)N(C)C(=O)CN(C)C(=O)CN(C)C1=O [Compound 518] ([NMeS](Trifluoroethyl)I[Sar][Sar][NMeCha][Sar][hPhe(3-Cl-4-CF3)]P[Ac5c][NMeChg][NMeD]-Piperidide; lactam N-11)	0.00067	0.05 to 0.1
CC[C@H](C)[C@@H]1NC(=O)[C@H](CC(C)C)N(C)C(=O)C[C@@H](C)NC(=O)[C@H](C(C)C)N(C)C(=O)C2(CCC2)NC(=O)[C@@H]2CCCN2C(=O)[C@H](CCc2ccc(C(F)(F)F)c(Cl)c2)NC(=O)CN(C)C(=O)[C@H](CC2CCCCC2)N(C)C(=O)CN(C)C(=O)CN(C)C1=O [Compound 520] (cyclo([Ac4c][NMeV][d(β3hA)][NMeL]I[Sar][Sar][NMeCha][Sar][hPhe(3-Cl-4-CF3)]P))	0.017	0.1 to 0.5
